We go through 1 substance from patent US10925839B2, “Composition for treating joint disease and kit containing same” (SEIKAGAKU CORPORATION, priority 2017, dated 2021).

This experiment has as its system human knee osteoarthritis patients. Put plainly: Randomized placebo-controlled double-blind trial, WOMAC A (pain) evaluation by VAS. The class given is in vivo. Particulars: 12 weeks after initial administration; for WOMAC-A Change (average change from baseline): MMRM estimate. How it is done:
The effectiveness of the investigational drug (test drug (composition for treating joint disease of invention) or placebo) when administered 3 times at four-week intervals in the knee joint cavities of human knee osteoarthritis patients was investigated by a multi-center collaborative, randomized, placebo-controlled, double-blind, parallel-group comparison trial. The test drug and placebo were as follows:
Test drug: 3 mL of aqueous solution for injection containing 30 mg of test substance (3.6 mg as diclofenac);
The total amount (3 mL) of the test drug or placebo was administered (injected) into the knee joint cavities of the affected knees of the target patients on week 0, week 4 and week 8 for a total of three injections.
Effectiveness was evaluated by the following evaluation methods at the time of the initial administration and at evaluation points 1, 2, 4, 6, 8, 10 and 12 weeks after the initial administration.
Effectiveness was evaluated using the WOMAC® evaluation (The Journal of Rheumatology 1988; 15:12, p. 1833-1840) developed by Dr. Nicholas Bellamy. The WOMAC(r) evaluation has been established as a method for evaluating osteoarthritis (The Journal of Rheumatology 2000; 27:11, p. 2635-2641).
The patient response method used the VAS (Visual Analog Scale). With the VAS, the degree of a patient's own feelings in response to each question is indicated by the patient on a 100 mm line, and the degree is evaluated according to the position on the line. Position is represented as length from the left end of the scale. For example, a patient is asked the same question about pain in evaluations before and after administration, and the patient responds by indicating a position (degree) on the scale. Numerical values for improvement are then obtained based on the difference between the length indicated by the patient before administration (baseline) and the length indicated by the patient during each evaluation after administration.
The improvement effects were quantified based on the difference between the length indicated by the patient before administration (baseline) and the length indicated by the patient at the time of each evaluation after administration. The analysis results for questions about pain (WOMAC® A: evaluates intensity of pain during walking, etc.) are shown in Table 1 below. In the table, the lower the value of the change difference below 0, the greater the improvement effect.

For “Sodium hyaluronate with introduced aminoethanol-diclofenac [Test Drug]”, the “WOMAC-A Change difference (test drug group minus placebo group)” value is given as −13.7 (patients with 25 ≤ BMI and 26 ≤ DP (weeks)); “extremely great improvement effect” (patients with 25 ≤ BMI and 26 ≤ DP (weeks), listed as test drug); −13.4 (patients with BMI 25≤ kg/m^2); −3.2 (patients with BMI <25 and/or DP <26 weeks); −2.1 (patients with BMI <25 kg/m^2); −7.0 (whole group, VAS 100 mm line). The “WOMAC-A Change (average change from baseline)” value by setting is: (patients with 25 ≤ BMI and 26 ≤ DP (weeks), VAS 100 mm line) −30.7; (patients with BMI 25≤ kg/m^2, VAS 100 mm line) −32.6; (patients with BMI <25 and/or DP <26 weeks, VAS 100 mm line) −27.2; (patients with BMI <25 kg/m^2, VAS 100 mm line) −25.2; (whole group, 30 mg test substance intra-articular at weeks 0, 4, 8, VAS 100 mm line) −28.7.
